Results published in patent US4405619A, “Antiinflammatory substituted-1,2,4-triazolo[4,3-b]-1,2,4-triazines” (Diamond Shamrock Corporation, priority 1981, dated 1983).

Experiments:
[1] = tested on: carrageenin-induced edema; test: Carrageenin-induced edema (antiinflammatory) assay, rat hind paw; assay type: in vivo, rat (Long Evans strain, male); settings: for ED50: 3 h, oral, dose which reduced edema formation by about 25% or more vs. mean control response in 50% of the animals; for inhibition in vivo at 200 mg/kg: 200 mg/kg oral
Protocol: The procedure employed is a modification of the method of Winter et al., Proc. Soc. Exptl. Biol. Med., 111:544 (1962). The device used for measurement of the paw volume is an adaptation of the water displacement procedure described by Adamkiewicz et al., Can. J. Biochem. Physiol., 33:332 (1955). Test compounds were administered orally, one hour prior to the intraplanter injection of 0.05 mL. of sterile 1.0% solution of carrageenin into the left hind paw of male rats (Long Evans strain) weighing between about 130-200 g. At peak swelling time (3 hrs.) the volume of edema was calculated by differential paw volumes.
Selected compounds of the invention were further tested to determine their ED50 values. The ED50 value is defined as that dose which reduced edema formation by about 25% or more compared with the mean control response (parallel run) in 50% of the animals. Typical results of these tests appear in Table II.

phenylquinone writhing = test: Phenylquinone writhing test (analgesic assay); assay type: in vivo, mouse (Carworth CF1, male); settings: for Phenylquinone Writhing Assay (% Control), percent analgesia, 15 min.: 15 min. after administration; for Phenylquinone Writhing Assay (% Control), percent analgesia, 30 min.: 30 min. after administration; for Phenylquinone Writhing Assay (% Control), percent analgesia, 60 min.: 60 min. after administration
Protocol: Phenylquinone writhing test was employed to evaluate analgesic activity for selected compounds for the present invention according to the following procedure:
Phenylquinone (phenyl-p-benzoquinone, No. 7104, Eastman Organic Chemicals) is made up as a 0.02% aqueous solution and 5% ethyl alcohol. Phenylquinone solutions are made up fresh twice daily. Standard reference agents and the test compounds are dissolved or suspended in a 0.25% methylcellulose solution. A control group consisting of 10 mice (Carworth CF1 male mice) are administered the 0.02% phenylquinone solution at a dose of 0.25 mL./mouse. The mice are housed individually and observed closely for 10 min. for exhibition of writhing. The onset of writhing occurs within 3 min. and 100% of the mice must writh within 10 min. Test compounds are administered orally to groups of 10 mice. The volume given is 0.01 mL. per gram of body weight. Activity can be studied at 15, 30, 60 and 120 min. after oral administration. After the designated time interval of a dose group has elapsed, the mice are challenged with phenylquinone intraperitoneally. Complete blocking of the writhing syndrome for the 10-min. observation period in any one mouse is considered a positive analgesic response for that mouse. Conversely, if any mouse wriths definitely once, it is considered not to be protected. The number of mice not writhing in a group multiplied by 10 equals percent analgesia for that dose at the time interval.

[2] = Rattus norvegicus, 1 hour before carrageenin, edema at peak swelling time (3 hrs.), read-out: % Reduction of Edema

Cc1nnc2nc(-c3cccc(Cl)c3)cnn12 [Example 1, 1,2,4-triazolo[4,3-b]-1,2,4-triazine, 3-methyl-7-(3-chlorophenyl)]
ED50 ([1]; Rattus norvegicus): 30 mg/kg | inhibition in vivo at 200 mg/kg [1, 2]: 39%

COCc1nnc2nc(-c3ccccc3)cnn12 [Example 2, 1,2,4-triazolo[4,3-b]-1,2,4-triazine, 3-methoxymethyl-7-phenyl]
inhibition in vivo at 200 mg/kg [1, 2]: 26%

Oc1nnc2nc(-c3ccccc3)cnn12 [Example 3, 1,2,4-triazolo[4,3-b]-1,2,4-triazine, 3-hydroxy-7-phenyl]
inhibition in vivo at 200 mg/kg [1, 2]: 22%

CC(C)c1nnc2nc(-c3ccccc3)cnn12 [Example 4, 1,2,4-triazolo[4,3-b]-1,2,4-triazine, 3-isopropyl-7-phenyl]
inhibition in vivo at 200 mg/kg [1, 2]: 18% | Phenylquinone Writhing Assay (% Control), percent analgesia, 15 min. (phenylquinone writhing; 100 mg/kg oral): 10% | Phenylquinone Writhing Assay (% Control), percent analgesia, 30 min. (phenylquinone writhing; 100 mg/kg oral): 20% | Phenylquinone Writhing Assay (% Control), percent analgesia, 60 min. (phenylquinone writhing; 100 mg/kg oral): 20%

CCc1nnc2nc(-c3ccccc3)cnn12 [Example 5, 1,2,4-triazolo[4,3-b]-1,2,4-triazine, 3-ethyl-7-phenyl]
ED50 ([1]; Rattus norvegicus): 100 mg/kg | inhibition in vivo at 200 mg/kg [1, 2]: 40% | Phenylquinone Writhing Assay (% Control), percent analgesia, 15 min. (phenylquinone writhing; 100 mg/kg oral): 30% | Phenylquinone Writhing Assay (% Control), percent analgesia, 30 min. (phenylquinone writhing; 100 mg/kg oral): 30% | Phenylquinone Writhing Assay (% Control), percent analgesia, 60 min. (phenylquinone writhing; 100 mg/kg oral): 70%

CC(C)c1nnc2nc(-c3ccc(Cl)c(Cl)c3)cnn12 [Example 6, 1,2,4-triazolo[4,3-b]-1,2,4-triazine, 3-isopropyl-7-(3',4'-dichlorophenyl)]
inhibition in vivo at 200 mg/kg [1, 2]: 33%

Clc1ccc(-c2cnn3cnnc3n2)cc1Cl [Example 7, 1,2,4-triazolo[4,3-b]-1,2,4-triazine, 7-(3',4'-dichlorophenyl)]
ED50 ([1]; Rattus norvegicus): 1 mg/kg | inhibition in vivo at 200 mg/kg [1, 2]: 36% | Phenylquinone Writhing Assay (% Control), percent analgesia, 15 min. (phenylquinone writhing; 100 mg/kg oral): 30% | Phenylquinone Writhing Assay (% Control), percent analgesia, 30 min. (phenylquinone writhing; 100 mg/kg oral): 50% | Phenylquinone Writhing Assay (% Control), percent analgesia, 60 min. (phenylquinone writhing; 100 mg/kg oral): 30%

COCc1nnc2nc(-c3ccc(C)cc3)cnn12 [Example 8, 1,2,4-triazolo[4,3-b]-1,2,4-triazine, 3-methoxymethyl-7-(4'-methylphenyl)]
% Reduction of Edema ([1]; 100 mg/kg oral, 1 hour before carrageenin, edema at peak swelling time (3 hrs.)): 16%

Cc1nnc2nc(-c3ccccc3)c(-c3ccccc3)nn12 [Example 9, 1,2,4-triazolo[4,3-b]-1,2,4-triazine, 3-methyl-6,7-diphenyl]
inhibition in vivo at 200 mg/kg [1, 2]: 35%

Clc1ccc(-c2cnn3cnnc3n2)cc1 [Example 10, 1,2,4-triazolo[4,3-b]-1,2,4-triazine, 7-(4'-chlorophenyl)]
ED50 ([1]; Rattus norvegicus): 10 mg/kg | inhibition in vivo at 200 mg/kg [1, 2]: 27%

Cc1nnc2nc(-c3ccccc3)cnn12 [Example 12, 1,2,4-triazolo[4,3-b]-1,2,4-triazine, 3-methyl-7-phenyl]
inhibition in vivo at 200 mg/kg [1, 2]: 70%

c1ccc(-c2cnn3cnnc3n2)cc1 [Example 13, 1,2,4-triazolo[4,3-b]-1,2,4-triazine, 7-phenyl]
inhibition in vivo at 175 mg/kg ([1]; Rattus norvegicus, 175 mg/kg oral, 1 hour before carrageenin, edema at peak swelling time (3 hrs.), read-out: % Reduction of Edema): 82% | Phenylquinone Writhing Assay (% Control), percent analgesia, 15 min. (phenylquinone writhing; 50 mg/kg oral): 20% | Phenylquinone Writhing Assay (% Control), percent analgesia, 30 min. (phenylquinone writhing; 50 mg/kg oral): 20%

FC(F)(F)c1nnc2nc(-c3ccccc3)cnn12 [Example 15, 1,2,4-triazolo[4,3-b]-1,2,4-triazine, 3-trifluoromethyl-7-phenyl]
inhibition in vivo at 200 mg/kg [1, 2]: 30%

c1ccc(-c2nc3nncn3nc2-c2ccccc2)cc1 [Example 22, 1,2,4-triazolo[4,3-b]-1,2,4-triazine, 6,7-diphenyl]
inhibition in vivo at 200 mg/kg [1, 2]: 32%

CC(C)c1nnc2nc(-c3ccccc3)c(-c3ccccc3)nn12 [Example 23, 1,2,4-triazolo[4,3-b]-1,2,4-triazine, 3-isopropyl-5,6-diphenyl]
ED50 ([1]; Rattus norvegicus): 30 mg/kg | inhibition in vivo at 200 mg/kg [1, 2]: 37%

Cc1nc2nnc(C)n2nc1C [Example 25, 1,2,4-triazolo[4,3-b]-1,2,4-triazine, 3,6,7-trimethyl]
inhibition in vivo at 200 mg/kg [1, 2]: 49%

Cc1nnc2nc(-c3ccccc3Cl)cnn12 [Example 26, 1,2,4-triazolo[4,3-b]-1,2,4-triazine, 3-methyl-7-(2'-chlorophenyl)]
inhibition in vivo at 200 mg/kg [1, 2]: 56%

Clc1cccc(-c2cnn3cnnc3n2)c1 [Example 28, 1,2,4-triazolo[4,3-b]-1,2,4-triazine, 7-(3'-chlorophenyl)]
inhibition in vivo at 200 mg/kg [1, 2]: 21%

Clc1ccccc1-c1cnn2cnnc2n1 [Example 36, 1,2,4-triazolo[4,3-b]-1,2,4-triazine, 7-(2'-chlorophenyl)]
inhibition in vivo at 200 mg/kg [1, 2]: 65%
